Structures can show the parent of a compound that is named as a salt.
Each compound was assayed against HSET full length protein (Homo sapiens (Human), UniProt Q9BW19) (assay: HSET ADP-Glo Assay S - 3 μM ATP). Conditions: 5 nM HSET, 70 μg/mL microtubule, 80 min at rt, read-out: COMBINED HSET ADP GLO IC50.
Format: biochemical
Outline: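 ADP-Glo luminescence read-out: ATPase reaction at 3 μM ATP, 80 min at room temperature, after a 10 min compound preincubation. Enzyme was full-length human HSET at 5 nM, stimulated by 70 μg/mL paclitaxel-stabilised bovine microtubules in HEPES pH 6.8 buffer with MgCl2, EGTA, Triton X-100 and DTT.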

Chain of HSET full length protein (Q9BW19 whole entry): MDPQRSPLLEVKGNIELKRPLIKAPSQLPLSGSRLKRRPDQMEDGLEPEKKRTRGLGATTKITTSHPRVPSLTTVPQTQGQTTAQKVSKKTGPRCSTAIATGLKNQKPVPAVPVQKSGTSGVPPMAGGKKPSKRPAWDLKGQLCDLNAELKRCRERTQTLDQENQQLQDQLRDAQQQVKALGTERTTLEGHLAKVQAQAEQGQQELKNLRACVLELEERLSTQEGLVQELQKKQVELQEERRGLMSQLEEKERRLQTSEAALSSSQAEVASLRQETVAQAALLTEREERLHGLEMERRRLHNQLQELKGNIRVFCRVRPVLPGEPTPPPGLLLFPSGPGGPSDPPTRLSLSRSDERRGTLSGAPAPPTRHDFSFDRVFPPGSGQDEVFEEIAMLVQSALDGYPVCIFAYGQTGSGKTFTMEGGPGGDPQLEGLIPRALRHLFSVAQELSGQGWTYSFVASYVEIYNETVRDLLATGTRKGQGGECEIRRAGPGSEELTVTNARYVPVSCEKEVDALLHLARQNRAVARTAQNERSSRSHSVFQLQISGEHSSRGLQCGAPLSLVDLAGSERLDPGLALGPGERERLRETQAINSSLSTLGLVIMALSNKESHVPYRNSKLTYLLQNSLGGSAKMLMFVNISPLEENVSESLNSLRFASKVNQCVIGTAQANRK

Row | SMILES | IC50
1 | CNCCC[C@@H](CC(=O)Nc1nc(C)c(C(=O)OC2CCCC2)s1)NC(=O)c1cccc(-c2noc(C)n2)c1 [Example 155, Cyclopentyl (S)-4-methyl-2-(3-(3-(5-methyl-1,2,4-oxadiazol-3-yl)benzamido)-6-(methylamino)hexanamido)thiazole-5-carboxylate] | 0.011 µM
2 | CCCOC(=O)c1sc(NC(=O)[C@H](N)CNC(=O)c2cccc(-c3noc(C)n3)c2)nc1C [Example 173, Propyl (R)-2-(2-amino-3-(3-(5-methyl-1,2,4-oxadiazol-3-yl)benzamido)propanamido)-4-methylthiazole-5-carboxylate formate] | 0.063 µM
3 | CCc1nc(NC(=O)CCNC(=O)c2cccc(-c3noc(C)n3)c2)sc1C(=O)OC [Example 90, Methyl 4-ethyl-2-[3-[[3-(5-methyl-1,2,4-oxadiazol-3-yl)benzoyl]amino]propanoylamino]thiazole-5-carboxylate] | 0.556 µM
4 | Cc1nc(-c2ccc3ccnc(N[C@H]4C[C@@H](C(=O)Nc5cc(C)c(CC(C)C)s5)C4)c3c2)no1 [Example 102, (1s,3s)-N-(5-isobutyl-4-methylthiophen-2-yl)-3-((7-(5-methyl-1,2,4-oxadiazol-3-yl)isoquinolin-1-yl)amino)cyclobutane-1-carboxamide formate] | 0.409 µM
5 | CCOC(=O)c1sc(NC(=O)CCNC(=O)c2cc(F)cc(C(=O)OC)c2)nc1C [Example 10, Ethyl 2-[3-[(3-fluoro-5-methoxycarbonyl-benzoyl)amino]propanoylamino]-4-methyl-thiazole-5-carboxylate] | 0.036 µM
6 | Cc1nc(-c2ccc3ccnc(N[C@H]4C[C@@H](C(=O)N(C)c5nc(C)c(C(=O)OC(C)(C)C)s5)C4)c3c2)no1 [Example 111, tert-Butyl 4-methyl-2-[methyl-[3-[[7-(5-methyl-1,2,4-oxadiazol-3-yl)-1-isoquinolyl]amino]cyclobutanecarbonyl]amino]thiazole-5-carboxylate] | 0.068 µM
7 | Cc1ccc2ccnc(NC[C@H](O)C(=O)Nc3nc(C)c(C(=O)OC(C)(C)C)s3)c2c1 [Example 185, tert-Butyl (S)-2-(2-hydroxy-3-((7-methylisoquinolin-1-yl)amino)propanamido)-4-methylthiazole-5-carboxylate] | 0.02 µM
8 | CCOC(=O)c1cc(C(=O)NCCNc2nccc3ccc(-c4noc(C)n4)cc23)nn1C [Example 71, Ethyl 1-methyl-3-((2-((7-(5-methyl-1,2,4-oxadiazol-3-yl)isoquinolin-1-yl)amino)ethyl)carbamoyl)-1 H-pyrazole-5-carboxylate] | 10.9 µM
9 | CCCOC(=O)c1sc(NC(=O)CCNc2nccc3ccc(-c4noc(C)n4)cc23)nc1C [Example 54, Propyl 4-methyl-2-(3-((7-(5-methyl-1,2,4-oxadiazol-3-yl)isoquinolin-1-yl)amino)propanamido)thiazole-5-carboxylate] | 0.003 µM
10 | Cc1nc(-c2ccc3ccnc(N[C@H]4C[C@@H](C(=O)Nc5nc(C)c(C(=O)O[C@@H](C)C(F)(F)F)s5)C4)c3c2)no1 (stereo in doubt) [Example 115, [(1 S)-2,2,2-trifluoro-1-methyl-ethyl]4-methyl-2-[[3-[[7-(5-methyl-1,2,4-oxadiazol-3-yl)-1-isoquinolyl]amino]cyclobutanecarbonyl]amino]thiazole-5-carboxylate] | 0.005 µM
11 | CCOC(=O)c1sc(NC(=O)CCNC(=O)c2cccc(-c3nc(C)no3)c2)nc1C [Example 34, Ethyl 4-methyl-2-(3-(3-(3-methyl-1,2,4-oxadiazol-5-yl)benzamido)propanamido)thiazole-5-carboxylate] | 0.101 µM
12 | CNCCC[C@@H](CC(=O)Nc1nc(C)c(C(=O)OC(C)C)s1)NC(=O)c1cccc(-c2noc(C)n2)c1 [Example 156, Isopropyl (S)-4-methyl-2-(3-(3-(5-methyl-1,2,4-oxadiazol-3-yl)benzamido)-6-(methylamino)hexanamido)thiazole-5-carboxylate] | 0.053 µM
13 | CCOC(=O)c1sc(NC(=O)[C@H]2CNC[C@@H]2NC(=O)c2cccc(-c3noc(C)n3)c2)nc1C [Example 149, Ethyl-4-methyl-2-[[(3S,4R)-4-[[3-(5-methyl-1,2,4-oxadiazol-3-yl)benzoyl]amino]pyrrolidine-3-carbonyl]amino]thiazole-5-carboxylate; formic acid] | 2.79 µM
14 | Cc1nc(-c2cccc(C(=O)NCCC(=O)Nc3nc(C)c(/C=C/C4CCCC4)s3)c2)no1 [Example 93, N-[3-[[5-[(E)-2-cyclopentylvinyl]-4-methyl-thiazol-2-yl]amino]-3-oxo-propyl]-3-(5-methyl-1,2,4-oxadiazol-3-yl)benzamide] | 0.691 µM
15 | Cc1nc(-c2cccc(C(=O)NCCC(=O)Nc3nc(C)c(C(=O)OC(C)(C)C)s3)n2)no1 [Example 277, tert-Butyl 4-methyl-2-(3-{[6-(5-methyl-1,2,4-oxadiazol-3-yl)pyridin-2-yl]formamido}propanamido)-1,3-thiazole-5-carboxylate] | 0.155 µM
16 | Cc1nc(-c2cccc(C(=O)NC3CN(C(=O)N(C)c4nc(C)c(C(=O)OC(C)(C)C)s4)C3)c2)no1 [Example 229, tert-Butyl 4-methyl-2-[methyl-[3-[[3-(5-methyl-1,2,4-oxadiazol-3-yl)benzoyl]amino]azetidine-1-carbonyl]amino]thiazole-5-carboxylate] | 0.052 µM

Row | SMILES | IC50
17 | CNCCC[C@@H](CC(=O)Nc1nc(C)c(C(=O)OC(CF)CF)s1)Nc1nccc2ccc(-c3noc(C)n3)cc12 [Example 166, 1,3-Difluoropropan-2-yl (S)-4-methyl-2-(3-((7-(5-methyl-1,2,4-oxadiazol-3-yl)isoquinolin-1-yl)amino)-6-(methylamino)hexanamido)thiazole-5-carboxylate] | 0.011 µM
18 | Cc1nc(-c2cccc(C(=O)NCCC(=O)Nc3nc(C)c(C(=O)OCCCCN)s3)c2)no1 [Example 125, 4-aminobutyl 4-methyl-2-(3-(3-(5-methyl-1,2,4-oxadiazol-3-yl)benzamido)propanamido)thiazole-5-carboxylate hydrochloride] | 5.59 µM
19 | CCOC(=O)c1sc(NC(=O)CCNC(=O)c2cc(O)cc(C(=O)OC)c2)nc1C [Example 20, Ethyl 2-[3-[(3-hydroxy-5-methoxycarbonyl-benzoyl)amino]-propanoylamino]-4-methyl-thiazole-5-carboxylate] | 0.737 µM
20 | CCCOC(=O)n1cnc(NC(=O)CCNc2nccc3ccc(-c4noc(C)n4)cc23)c1 [Example 260, Propyl 4-(3-{[7-(5-methyl-1,2,4-oxadiazol-3-yl)isoquinolin-1-yl]amino}propanamido)-1 H-imidazole-1-carboxylate] | 0.14 µM
21 | CNCCC[C@@H](CC(=O)Nc1nc(C)c(C(C)(C)C)s1)NC(=O)c1cccc(-n2nnc(C)n2)c1 [Example 60, (S)-N-(1-((5-(tert-butyl)-4-methylthiazol-2-yl)amino)-6-(methylamino)-1-oxohexan-3-yl)-3-(5-methyl-2H-tetrazol-2-yl)benzamide] | 0.054 µM
22 | CCCOC(=O)c1sc(NC(=O)C[C@H](CCCN2CCOCC2)NC(=O)c2cccc(-c3noc(C)n3)c2)nc1C [Example 159, Propyl (S)-4-methyl-2-(3-(3-(5-methyl-1,2,4-oxadiazol-3-yl)benzamido)-6-morpholinohexanamido)thiazole-5-carboxylate] | 0.021 µM
23 | CCc1cc(NC(=O)CCNc2nccc3ccc(-c4noc(C)n4)cc23)nn1C [Example 76] | 8.31 µM
24 | CCOC(=O)c1sc(NC(=O)CCNC(=O)c2cc(C)cc(C(=O)OC)c2)nc1C [Example 15, Ethyl 2-[3-[(3-methoxycarbonyl-5-methyl-benzoyl)amino]propanoylamino]-4-methyl-thiazole-5-carboxylate] | 0.009 µM
25 | CCCCc1sc(C(=O)NCCNc2nccc3ccc(-c4noc(C)n4)cc23)nc1C [Example 137, 5-Butyl-4-methyl-N-(2-((7-(5-methyl-1,2,4-oxadiazol-3-yl)isoquinolin-1-yl)amino)ethyl)thiazole-2-carboxamide formate] | 0.778 µM
26 | CCCOC(=O)c1cc(C(=O)NCCNc2nccc3ccc(-c4noc(C)n4)cc23)nn1C [Example 72, Propyl 1-methyl-3-((2-((7-(5-methyl-1,2,4-oxadiazol-3-yl)isoquinolin-1-yl)amino)ethyl)carbamoyl)-1 H-pyrazole-5-carboxylate] | 4.31 µM
27 | CCCOC(=O)c1cc(NC(=O)CCNC(=O)c2cc(C)cc(-c3noc(C)n3)c2)nn1C [Example 27, Propyl 1-methyl-3-(3-(3-methyl-5-(5-methyl-1,2,4-oxadiazol-3-yl)benzamido)propanamido)-1 H-pyrazole-5-carboxylate] | 0.116 µM
28 | Cc1nc(-c2ccc3ccnc(N[C@@H](CCCN)CC(=O)Nc4nc(C)c(C(C)(C)C)s4)c3c2)no1 [Example 164, (S)-6-amino-N-(5-(tert-butyl)-4-methylthiazol-2-yl)-3-((7-(5-methyl-1,2,4-oxadiazol-3-yl)isoquinolin-1-yl)amino)hexanamide formate] | 0.116 µM
29 | CCOC(=O)c1sc(NC(=O)C[C@H](C)NC(=O)c2cccc(-c3noc(C)n3)c2)nc1C [Example 143, Ethyl-(S)-4-methyl-2-(3-(3-(5-methyl-1,2,4-oxadiazol-3-yl)benzamido)butanamido)thiazole-5-carboxylate] | 0.061 µM
30 | Cc1nc(-c2ccc3ccnc(N[C@H]4C[C@@H](C(=O)Nc5nc(C)c(C(F)(F)F)s5)C4)c3c2)no1 [Example 103, (1s,3s)-3-((7-(5-methyl-1,2,4-oxadiazol-3-yl)isoquinolin-1-yl)amino)-N-(4-methyl-5-(trifluoromethyl)thiazol-2-yl)cyclobutane-1-carboxamide] | 0.676 µM
31 | COC(=O)c1sc(NC(=O)C[C@H](CC(=O)O)NC(=O)c2cccc(-c3noc(C)n3)c2)nc1C [Example 216, (3R)-4-{[5-(methoxycarbonyl)-4-methyl-1,3-thiazol-2-yl]carbamoyl}-3-{[3-(5-methyl-1,2,4-oxadiazol-3-yl)phenyl]formamido}butanoic acid] | 1.7 µM

From patent US20250084074A1, “SUBSTITUTED HETEROCYCLES AS HSET INHIBITORS” (MERCK PATENT GMBH, priority 2022, published 2025)
